Data from patent US20240043392A1, “NOVEL BIPHENYL DERIVATIVE AND PREPARATION METHOD AND PHARMACEUTICAL USE THEREOF” (XI'AN XINTON PHARMACEUTCAL RESEARCH CO., LTD., priority 2021, published 2024).
Like-named read-outs stand apart in the source and are kept apart here.

Experiments:
hPD-1/hPD-L1 interaction = hPD-1/hPD-L1 interaction (Homo sapiens (Human), UniProt Q9NZQ7); details: read-out: PD-1/PD-L1 IC50
C57BL/6 mice [1] = assay: Acute toxicity test, intraperitoneal injection; details: 125 mg/kg
C57BL/6 mice [2] = details: mouse, in vivo
[3] = tested on: MC38-hPDL1 colon cancer cells; set-up: species or system mice; details: mouse, in vivo
Fc-hPD-L1 protein = Fc-hPD-L1 protein (Homo sapiens (Human), UniProt Q9NZQ7); assay type: binding
Chain of Fc-hPD-L1 protein (Q9NZQ7 19-238 limits assumed): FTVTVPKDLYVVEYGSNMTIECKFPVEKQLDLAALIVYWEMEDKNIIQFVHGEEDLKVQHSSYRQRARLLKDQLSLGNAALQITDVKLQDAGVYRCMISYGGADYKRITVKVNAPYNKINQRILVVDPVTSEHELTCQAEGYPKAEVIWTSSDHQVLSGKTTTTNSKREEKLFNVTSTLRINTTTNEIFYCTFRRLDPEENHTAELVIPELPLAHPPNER

Chain of hPD-1/hPD-L1 interaction (Q9NZQ7 19-238): as the sequence (Q9NZQ7 19-238 limits assumed) above

Row | Compound | IC50 (hPD-1/hPD-L1 interaction) [nM] | Kd (Fc-hPD-L1 protein) [nM] | other results
1 | 1-(4-((3′-(3-(4-((2-carbamoylpyrrolidin-1-)methyl)-1H-1,2,3-triazol-1-) Propoxy)-2,2′-dimethyl-[1,1′-biphenyl]-3-methoxy)-5-chloro-2-((5-cyanopyridine-3-)methox y)benzyl) pyrrolidine-2-carboxamide [II-4] | 10 to 100 |  | 
2 | 5-((4-chloro-2-(((2-hydroxyethyl)amino)methyl)-5-((3′-(3-(4-(((2-hydroxyethyl)amino)methy 1 Base)-1H-1,2,3-triazol-1-)propoxy)-2,2′-dimethyl-[1,1′-biphenyl]-3-)methoxy) phenoxy) methyl)nicotinonitrile [II-2] | 10 to 100 |  | 
3 | COc1nc(OCc2cccc(-c3ccccc3)c2C)ccc1CNCCNC(C)=O [BMS-202] |  |  | body weight (C57BL/6 mice [1]): decreased significantly; state of mice (clinical signs) (C57BL/6 mice [1]): obvious signs of convulsions and tremors
4 | Cc1c(COc2cc(OCc3cncc(C#N)c3)c(CN[C@@H](CO)C(=O)O)cc2Cl)cccc1-c1cccc(OCCCn2cc(CNC(CO)C(=O)O)nn2)c1C (stereo partly drawn) [II-1, (4-((3′-(3-(4-(((1-carboxy-2-hydroxyethyl)amino)methyl)-1H-1,2,3-triazole-1-)propaneoxy)-2,2′-dimethyl-[1,1′-biphenyl]-3-)methoxy)-5-chloro-2-((5-cyanopyridin-3-)methoxy)benzyl)serine] | 0.1 to 10 | 0.1 to 100 | body weight (C57BL/6 mice [2]): nor did their body weight decrease; inhibitory effect on tumor growth [3]: weak inhibitory effect on tumor growth; proliferation of CD3+CD4+T cell [3]: can promote the proliferation; proliferation of CD3+CD8+T cell [3]: can promote the proliferation; relative tumor inhibition rate [3]: 45.8%; tumor weight [3]: excellent anti-tumor effect
5 | COc1cc(OCc2cccc(-c3cccc(OCCCn4cc(CN5CCCC5C(N)=O)nn4)c3C)c2C)c(Cl)cc1CN1CCCC1C(N)=O (stereo not drawn) [II-8, 1-(4-((3′-(3-(4-((2-carbamoylpyrrolidin-1-)methyl)-1H-1,2,3-triazol-1-) Propoxy)-2,2′-dimethyl-[1,1′-biphenyl]-3-)methoxy)-5-chloro-2-methoxybenzyl)pyrrolidine-2-formamide] | 10 to 100 | 0.1 to 100 | 
6 | COc1cc(OCc2cccc(-c3cccc(OCCCn4cc(CNCCO)nn4)c3C)c2C)c(Cl)cc1CNCCO [II-9] | 0.1 to 10 | 0.1 to 100 | 
7 | COc1cc(OCc2cccc(-c3cccc(OCCCn4cc(CNCCNC(C)=O)nn4)c3C)c2C)c(Cl)cc1CNCCNC(C)=O [II-10, N-(2-((4-((3′-(3-(4-(((2-acetylaminoethyl)amino)methyl)-1H-1,2,3-triazole-1-)propoxy)-2,2′-dimethyl-[1,1′-biphenyl]-3-)methoxy)-5-chloro-2-methoxybenzyl)amino)ethyl)acetamide] | 10 to 100 |  | 
8 | COc1cc(OCc2cccc(-c3cccc(OCCCn4cc(CN5CC[C@@H](O)C5)nn4)c3C)c2C)c(Cl)cc1CN1CC[C@@H](O)C1 [II-11, (R)-1-((1-(3-((3′-((2-chloro-4-(((R)-3-hydroxypyrrolidin-1-yl)methyl)-5-methoxyphenoxy)methyl)-2,2′-dimethyl-[1,1′-biphenyl]-3-)oxy)propyl)-1H-1,2,3-triazol-4-)methyl)py rrolidin-3-ol] | 10 to 100 | 0.1 to 100 | 
9 | COc1cc(OCc2cccc(-c3cccc(OCCCn4cc(CNCCC(=O)O)nn4)c3C)c2C)c(Cl)cc1CNCCC(=O)O [II-12, 3-((4-((3′-(3-(4-(((2-carboxyethyl)amino)methyl)-1H-1,2,3-triazol-1-)propoxyl)-2,2′-dimethyl-[1,1′-biphenyl]-3-)methoxy)-5-chloro-2-methoxybenzyl)amino)propionic acid] | 0.1 to 10 | 0.1 to 100 | 
10 | COc1cc(OCc2cccc(-c3cccc(OCCCn4cc(CN5CCCCC5C(=O)O)nn4)c3C)c2C)c(Cl)cc1CN1CCCCC1C(=O)O (stereo not drawn) [II-13] | 0.1 to 10 |  | 
11 | COc1cc(OCc2cccc(-c3cccc(OCCCn4cc(CNC(C)C(=O)O)nn4)c3C)c2C)c(Cl)cc1CN[C@@H](C)C(=O)O (stereo partly drawn) [II-15, (4-((3′-(3-(4-(((1-carboxyethyl)amino)methyl)-1H-1,2,3-triazol-1-yl)propoxy)-2 ,2′-dimethyl-[1,1′-biphenyl]-3-)methoxy)-5-chloro-2-methoxybenzyl)alanine] | 0.1 to 10 |  | 
12 | CCOC(=O)[C@@H](CO)NCc1cn(CCCOc2cccc(-c3cccc(COc4cc(OCc5cncc(C#N)c5)c(CN[C@H](CO)C(=O)OCC)cc4Cl)c3C)c2C)nn1 [II-18, (5-chloro-2-((5-cyanopyridin-3-)methoxy)-4-((3′-(3-(4-((((R)-1-ethoxy-3-hydroxy-1-oxopropan-2-)amino)methyl)-1H-1,2,3-triazol-1-)propoxy)-2,2′-dimethyl-[1,1′-biphenyl]-3-)methoxy)benzyl)-D-serine ethyl ester] | 10 to 100 | 100 to 1000 | body weight (C57BL/6 mice [2]): nor did their body weight decrease; proliferation of CD3+CD4+T cell [3]: can promote the proliferation; proliferation of CD3+CD8+T cell [3]: can promote the proliferation; relative tumor inhibition rate [3]: 49.6%; tumor weight [3]: excellent anti-tumor effect
13 | COC(=O)[C@@H](CO)NCc1cn(CCCOc2cccc(-c3cccc(COc4cc(OCc5cncc(C#N)c5)c(CN[C@H](CO)C(=O)OC)cc4Cl)c3C)c2C)nn1 [II-19, (5-chloro-2-((5-cyanopyridin-3-)methoxy)-4-((3′-(3-(4-((((R)-1-methoxy-3-hydroxy-1-oxopropan-2-)amino)methyl)-1H-1,2,3-triazol-1-)propoxy)-2,2′-dimethyl-[1,1′-biphenyl]-3-)methoxy)benzyl)-D-serine methyl ester] | 10 to 100 | 100 to 1000 | 
14 | CCOC(=O)CNCc1cn(CCCOc2cccc(-c3cccc(COc4cc(OCc5cncc(C#N)c5)c(CNCC(=O)OCC)cc4Cl)c3C)c2C)nn1 [II-20, (5-chloro-2-((5-cyanopyridin-3-yl)methoxy)-4-((3′-(3-(4-(((2-ethoxy-2-oxoethyl)amino)methyl)-1H-1,2,3-triazol-1-)propoxy)-2,2′-dimethyl-[1,1′-biphenyl]-3-)methoxy)benzyl)glycine ethyl ester] | 10 to 100 | 100 to 1000 | 
15 | CCOC(=O)[C@@H](CO)NCc1cn(CCCOc2cccc(-c3cccc(COc4cc(OC)c(CN[C@H](CO)C(=O)OCC)cc4Cl)c3C)c2C)nn1 [II-21, ((1-(3-((3′-((2-chloro-4-((((R)1-ethoxy-3-hydroxy-1-oxopropan-2-)amino)methyl)-5-methoxyphenoxy)methyl)-2,2′-dimethyl-[1,1′-biphenyl]-3-)oxy)propyl)-1H-1,2,3-triazol-4-)methyl)-D-serine ethyl ester] | 10 to 100 | 100 to 1000 | 
16 | (4-((3′-(2-(4-(((1-carboxy-2-hydroxyethyl)amino)methyl)-1H-1,2,3-triazol-1-)ethyl oxy)-2,2′-dimethyl-[1,1′-biphenyl]-3-)methoxy)-5-chloro-2-((5-cyanopyridin-3-)methoxy)ben zyl)serine [II-6] | 100 to 1000 |  | 
17 | (4-((3′-(3-(4-(((1-carboxy-2-hydroxyethyl)amino)methyl)-1H-1,2,3-triazol-1-)propoxy)-2,2′-d imethyl-[1,1′-biphenyl]-3-yl)methoxy)-5-chloro-2-methoxybenzyl)serine [II-7] | 0.1 to 10 | 0.1 to 100 | 
18 | (4-((3′-(3-(4-(((1-carboxy-2-hydroxyethyl)amino)methyl)-1H-1,2,3-triazol-1-)propoxyl)-2,2′-dichloro-[1,1′-biphenyl]-3-)methoxy)-5-chloro-2-((5-cyanopyridin-3-)methoxy)benzyl)serine [II-16] | 10 to 100 |  | 
19 | (4-((3′-(3-(4-(((carboxymethyl)amino)methyl)-1H-1,2,3-triazol-1-)propoxy)-2,2′-dimethyl-[1,1′-biphenyl]-3-)methoxy)-5-chloro-2-((5-cyanopyridin-3-)methoxy)benzyl) glycine [II-5] | 0.1 to 10 | 0.1 to 100 | 
20 | (4-((3′-(3-(4-(((carboxymethyl)amino)methyl)-1H-1,2,3-triazol-1-)propoxy)-2, 2′-dichloro-[1,1′-biphenyl]-3-)methoxy)-5-chloro-2-((5-cyanopyridin-3-)methoxy)benzyl) glycine [II-17] | 100 to 1000 |  | 
21 | N-(2-((4-((3′-(3-(4-(((2-acetylaminoethyl)amino) methyl)-1H-1,2,3-triazole-1-)propoxy)-2,2′-dimethyl-[1,1′-biphenyl]-3-)methoxy)-5-chloro-2-((5-cyanopyridine-3-)methoxy) benzyl)amino)ethyl)acetamide [II-3] | 10 to 100 | 0.1 to 100 | 
